Test results from ChEMBL document CHEMBL1165994, “Leucoridines A-D, cytotoxic Strychnos-Strychnos bisindole alkaloids from Leuconotis” (J Nat Prod, 2010).
Converted amounts (≈) assume the structure as drawn.

Columns and labels:
KB = test: Cytotoxicity against human KB cells after 3 days by MTT assay; assay type: functional, cell-based; conditions: 72 h
[1] = Cytotoxicity against human KB/VJ300 cells after 3 days by MTT assay; assay type: functional, cell-based; conditions: KB/VJ300, 72 h

Row | Compound | IC50 (KB) [µg/mL] | IC50 [1] [µg/mL]
1 | CCC1=CN2CC[C@@]34C(=Nc5ccccc53)[C@@]3(CC5=C6N(C3)c3ccccc3[C@@]63CCN6C[C@@H](CC)[C@@H]5C[C@H]63)[C@H]1C[C@H]24 [LEUCORIDINE B] | 11.6 (≈ 20.9 µM) | 12 (≈ 21.7 µM)
2 | C=C1[C@H]2C[C@@H]3N(CC[C@@]34c3cccc(C[C@@H]5C6=Nc7ccccc7[C@@]67CCN6C[C@@H](CC)[C@@H]5C[C@H]67)c3N[C@@H]14)C[C@H]2CC [LEUCORIDINE D] | 12.5 (≈ 22.4 µM) | 13.3 (≈ 23.8 µM)
3 | CC[C@@H]1CN2CC[C@@]34C5=C(C[C@]6(CN5c5ccccc53)C(=O)[C@@]3(c5ccccc5N)CCN5C[C@@H](CC)[C@@H]6C[C@H]53)[C@H]1C[C@H]24 [LEUCORIDINE C] | 10.9 (≈ 19 µM) | 11.8 (≈ 20.5 µM)
4 | CC[C@@H]1CN2CC[C@@]34C5=C(C[C@]6(CN5c5ccccc53)C3=Nc5ccccc5[C@@]35CCN3C[C@@H](CC)[C@@H]6C[C@H]35)[C@H]1C[C@H]24 [LEUCORIDINE A] | 0.57 (≈ 1.02 µM) | 2.39 (≈ 4.29 µM)
